Patent US20120041167A1, “POLY(GLUTAMIC ACID)-DRUG CONJUGATE WITH AN AMINO ACID AS A LINKER” (Institute of Pharmacology and Toxicology Academy of …, priority 2006, published 2012)

Columns and labels:
[1] = test system: human breast cancer cells (Bacp-37); test: Activities against transplanted human breast cancer tumor in mice; assay type: in vivo, Balb/c-nu/nu nude mice; conditions: Bacp-37 xenograft, 20 days after administration; for Inhibition rate (%): tumor weight vs control group
Protocol: (§1) Balb/c-nu/nu nude mice (5 to 7 weeks old, 16-20 g) were randomly grouped. The mice were inoculated subcutaneously with 0.1 ml of a cell suspension containing 10^6 human breast cancer cells (Bacp-37). Upon the tumor volume having reached 50 mm^3, the mice were intravenously injected with a dose of a conjugate or a free drug. Twenty days after the administration, the animals were sacrificed and their body weight and tumor weight were measured.

[2] = test system: human liver cancer cells (HepG2); test: Activities against transplanted human liver cancer tumor in mice; assay type: in vivo, Balb/c-nu/nu nude mice; conditions: HepG2 xenograft, 20 days after administration; for Inhibition rate (%): tumor weight vs control group
Protocol: as §1, with “liver” for “breast”, “(HepG2).” for “(Bacp-37).”, “measured. Tumor inhibition rate was calculated according to the following equation: […]” for “measured.”

[3] = single i.v. dose 100 mg/kg (as free drug)

Molecule: [N-acetyl-poly-(L)-glutamic acid]-[2′-O-(L-isoleucyl)-docetaxel] conjugate [Compound I18]
- Weight of tumor ([1]; i.v. 100 mg/kg): 0.73 g
- Inhibition rate (%) ([1]; i.v. 100 mg/kg): 47.10%

Molecule: [N-acetyl-poly-(L)-glutamic acid]-[2′-O-(glycyl)-docetaxel] conjugate [Compound I6]
- Weight of tumor ([1]; i.v. 100 mg/kg): 0.47 g
- Inhibition rate (%) ([1]; i.v. 100 mg/kg): 65.94%

Molecule: [poly-(L)-glutamic acid]-[5′-O-(glycyl)-gemcitabine] conjugate [Compound I1]
- Weight of tumor ([1]; i.v. 5 mg/kg): 0.46 g
- Inhibition rate (%) ([1]; i.v. 5 mg/kg): 71.01%

Molecule: [N-acetyl-poly-(L)-glutamic acid]-[5′-O-(L-alanyl)-gemcitabine] conjugate [Compound I8]
- Weight of tumor ([1]; i.v. 5 mg/kg): 0.39 g
- Inhibition rate (%) ([1]; i.v. 5 mg/kg): 71.73%

Molecule: [N-acetyl-poly-(L)-glutamic acid]-[2′-O-(glycyl)-paclitaxel] conjugate [Compound I4]
- Weight of tumor ([1]; i.v. 100 mg/kg): 0.42 g
- Inhibition rate (%) ([1]; i.v. 100 mg/kg): 69.56%

Molecule: [N-acetyl-poly-(L)-glutamic acid]-[2′-O-(L-alanyl)-docetaxel] conjugate [Compound I12]
- Weight of tumor ([1]; i.v. 100 mg/kg): 0.34 g
- Inhibition rate (%) ([1]; i.v. 100 mg/kg): 75.36%

Molecule: [N-acetyl-poly-(L)-glutamic acid]-[2′-O-(L-alanyl)-paclitaxel] conjugate [Compound I10]
- Weight of tumor ([1]; i.v. 100 mg/kg): 0.29 g
- Inhibition rate (%) ([1]; i.v. 100 mg/kg): 78.99%

Molecule: Nc1ccn([C@@H]2O[C@H](CO)[C@@H](O)C2(F)F)c(=O)n1 [Gemcitabine]
- Change of body weight (g) ([1]; i.v. 5 mg/kg): +5.08 g
- Weight of tumor ([1]; i.v. 5 mg/kg): 0.51 g
- Inhibition rate (%) ([1]; i.v. 5 mg/kg): 63.08%
- Number of animals (final/initial) ([1]; single i.v. dose 5 mg/kg): 5/6
- Change of body weight (g) ([2]; i.v. 5 mg/kg (as free drug)): +4.77 g
- Weight of tumor ([2]; i.v. 5 mg/kg (as free drug)): 0.45 g
- Inhibition rate (%) ([2]; i.v. 5 mg/kg (as free drug)): 64.28%
- Number of animals (final/initial) ([2]; single i.v. dose 5 mg/kg (as free drug)): 4/6

Molecule: [N-acetyl-poly-(L)-glutamic acid]-[2′-O-(L-valyl)-paclitaxel] conjugate [Compound I22]
- Weight of tumor ([1]; i.v. 100 mg/kg): 0.41 g
- Inhibition rate (%) ([1]; i.v. 100 mg/kg): 70.29%

Molecule: CC(=O)O[C@@]12CO[C@@H]1C[C@H](O)[C@@]1(C)C(=O)[C@H](O)C3=C(C)[C@@H](OC(=O)[C@H](O)[C@@H](NC(=O)OC(C)(C)C)c4ccccc4)C[C@@](O)([C@@H](OC(=O)c4ccccc4)[C@H]21)C3(C)C [Docetaxel]
- Change of body weight (g) ([1]; i.v. 100 mg/kg): +6.29 g
- Weight of tumor ([1]; i.v. 100 mg/kg): 0.35 g
- Number of animals (final/initial) ([1]; single i.v. dose 100 mg/kg): 6/6
- Change of body weight (g) ([2]; i.v. 100 mg/kg (as free drug)): +6.92 g
- Weight of tumor ([2]; i.v. 100 mg/kg (as free drug)): 0.56 g
- Inhibition rate (%) ([2]; i.v. 100 mg/kg (as free drug)): 55.56%
- Number of animals (final/initial) [2, 3]: 6/6

Molecule: CC(=O)O[C@H]1C(=O)[C@@]2(C)[C@H]([C@H](OC(=O)c3ccccc3)[C@]3(O)C[C@H](OC(=O)[C@H](O)[C@@H](NC(=O)c4ccccc4)c4ccccc4)C(C)=C1C3(C)C)[C@]1(OC(C)=O)CO[C@@H]1C[C@@H]2O [Paclitaxel]
- Change of body weight (g) ([1]; i.v. 100 mg/kg): +5.91 g
- Weight of tumor ([1]; i.v. 100 mg/kg): 0.48 g
- Inhibition rate (%) ([1]; i.v. 100 mg/kg): 65.22%
- Number of animals (final/initial) ([1]; single i.v. dose 100 mg/kg): 5/6
- Change of body weight (g) ([2]; i.v. 100 mg/kg (as free drug)): +5.38 g
- Weight of tumor ([2]; i.v. 100 mg/kg (as free drug)): 0.54 g
- Inhibition rate (%) ([2]; i.v. 100 mg/kg (as free drug)): 57.14%
- Number of animals (final/initial) [2, 3]: 5/6
